The term IC50 denotes the concentration at which inhibition is half-maximal. Low readings indicate higher potency, high ones lower potency. By ΔTm is commonly meant the change in melting temperature against a reference sample.

One assay has as its target T1, Glucose-induced degradation protein 4 homolog (Homo sapiens, UniProt Q8IVV7).
T1 sequence (Q8IVV7 whole entry): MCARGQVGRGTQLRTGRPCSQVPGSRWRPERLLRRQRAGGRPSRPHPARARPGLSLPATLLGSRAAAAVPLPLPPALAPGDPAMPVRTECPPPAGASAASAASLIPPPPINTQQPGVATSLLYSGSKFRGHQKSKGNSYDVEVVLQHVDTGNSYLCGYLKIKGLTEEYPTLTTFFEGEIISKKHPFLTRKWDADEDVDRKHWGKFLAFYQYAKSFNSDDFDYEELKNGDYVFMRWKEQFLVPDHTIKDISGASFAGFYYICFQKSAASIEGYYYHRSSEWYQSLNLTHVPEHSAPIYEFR
In words: Inhibition of GID4 (124 to 289) (unknown origin) expressed in Escherichia coli BL21(DE3) using PGLWKS-FITC peptide by competitive-fluorescence polarization binding assay.
Conditions: not given
As for `CC1CN=C(Nc2cccc(F)c2)S1` (configuration not stated), the half-inhibitory concentration (IC50) came to 264 µM.

A further assay has as its target T2, Glucose-induced degradation protein 4 homolog (Homo sapiens) (UniProt Q8IVV7).
T2 sequence (whole entry): T1 sequence (Q8IVV7 whole entry)
Conditions: not given
Consider `C[C@H](N)c1ccc(Cl)cc1`, for which the thermal shift (ΔTm) is more than 1 °C.
Still for that read-out and setting: next, `O=[N+]([O-])c1ccccc1C1NCCc2sccc21` (configuration not stated): 4.1 °C; `OCc1ccc(C2NCCc3sccc32)cc1` (configuration not stated): 4.4 °C; `Nc1ccc(C2NCCc3sccc32)cc1` (configuration not stated): 7.1 °C.
The same measure, in the same setting: next, `Clc1ccc(C2NCCc3sccc32)cc1` (configuration not stated): 5.1 °C; `Nc1ccccc1C1NCCc2sccc21` (configuration not stated): 2.8 °C; `CC1CN=C(Nc2ccc(F)cc2)S1` (racemic): 3.2 °C.
Turning to `FC(F)(F)c1ccccc1C1NCCc2sccc21` (configuration not stated), the shift in melting temperature (ΔTm) came out at 5.3 °C.
The same measure, in the same setting: then `N#Cc1ccc(C2NCCc3sccc32)cc1` (configuration not stated), with 2 °C; and `CC1CN=C(Nc2ccc(N(C)C)cc2)S1` (configuration not stated), with 3.1 °C.
For the compound `FC(F)(F)c1ccc(C2NCCc3sccc32)cc1` (configuration not stated), the shift in melting temperature (ΔTm) is 2.7 °C.
The same measure, in the same setting: then `COc1ccc2c(c1)CCCC2c1ccccc1` (configuration not stated), with 6.4 °C; and `c1ccc(NC2=NCCS2)cc1`, with 2.5 °C.
On the same count and under the same terms, then `CC1SC(Nc2ccc(F)cc2)=NC1=O` (configuration not stated), with 0.6 °C; and `O=C(O)c1ccc(-c2ccc(Cl)cc2)o1`, with more than 1 °C.
The same measure, in the same setting: then `CC1CN=C(Nc2ccc(F)cc2F)S1` (configuration not stated), with 0.7 °C; and `COc1ccc(C2NCCc3sccc32)cc1` (racemic), with 4.5 °C.
For `c1ccc(C2NCCc3sccc32)cc1` (configuration not stated), the ΔTm was 7.9 °C.
Still for that read-out and setting: then `c1cc2c(s1)CCNC2`, with 1.9 °C.
The same measure, in the same setting: next, `Fc1ccc(C2NCCc3sccc32)cc1` (configuration not stated): 3.8 °C; `COc1ccc(NC2=NCC(C)S2)cc1` (configuration not stated): 3.1 °C; `CC(=O)Oc1ccc(C2NCCc3sccc32)cc1` (configuration not stated): 3.3 °C.
`N#Cc1cccc(C2NCCc3sccc32)c1` (configuration not stated): the shift in melting temperature (ΔTm) came to 3.9 °C.
As to `c1cncc(C2NCCc3sccc32)c1` (configuration not stated), the thermal shift (ΔTm) stood at 2.5 °C.
The same measure, in the same setting: next, `CC1CSC(Nc2cccc3ccccc23)=N1` (configuration not stated): 2.5 °C.
Turning to `CC(=O)c1ccc(NC2=NCC(C)S2)cc1` (configuration not stated), the shift in melting temperature (ΔTm) was -0.1 °C.
On the same count and under the same terms, next, `CC(=O)c1cccc(NC2=NCC(C)S2)c1` (configuration not stated): 3.2 °C.
Same read-out and setting: then `Brc1ccc(C2NCCc3sccc32)cc1` (configuration not stated), with 4.2 °C.
Still for that read-out and setting: then `Clc1ccc(CNCc2cccnc2)cc1`, with more than 1 °C; and `COc1cccc2c1CCNC2c1ccccc1` (configuration not stated), with 4.4 °C; and `CC1(C)CN=C(Nc2ccc(F)cc2)S1`, with 1.2 °C.
Turning to `COc1cccc(C2NCCc3sccc32)c1` (configuration not stated), the shift in melting temperature (ΔTm) was 7.6 °C.
The same measure, in the same setting: next, `CNC(=O)[C@H](CCc1ccccc1)NC(=O)[C@H](NC(=O)CNCc1ccc(OC)cc1OC)c1cccs1`: 16 °C; `CNC(=O)[C@H](CC1CCCCC1)NC(=O)[C@@H](NC(=O)[C@H]1NC[C@@H]1c1ccccc1)c1ccsc1`: 4.5 °C; `CNC(=O)C1c2ccccc2CN1C(=O)[C@@H](Cc1c(C)[nH]c2ccccc12)NC(=O)CNCCOc1ccc(C)cc1` (some centres not stated): 0.1 °C.
On the same count and under the same terms, then `Oc1cccc(C2NCCc3sccc32)c1` (configuration not stated), with 6.1 °C; and `CCOc1ccc(NC2=NCC(C)S2)cc1` (configuration not stated), with 0.8 °C.
As to `Clc1ccccc1C1NCCc2sccc21` (configuration not stated), the ΔTm amounted to 5 °C.
Still for that read-out and setting: then `O=[N+]([O-])c1cccc(C2NCCc3sccc32)c1` (configuration not stated), with 4.9 °C.
The same measure, in the same setting: then `NCc1ccccc1Oc1ccccc1`, with more than 1 °C.

The next assay deals with T2, Glucose-induced degradation protein 4 homolog (Homo sapiens). The following applies: HEK293, dose 50.0 µM, time 10.0 min.
For `CNC(=O)[C@H](CCc1ccccc1)NC(=O)[C@H](NC(=O)CNCc1ccc(OC)cc1OC)c1cccs1`, the ΔTm is 3.8 °C.

Values taken from ChEMBL document CHEMBL5104179, “Discovery and Structural Characterization of Small Molecule Binders of the Human CTLH E3 Ligase Subunit GID4” (J Med Chem, 2022).
